Test results from EP0076430A1, “Compositions having antimicrobial activity” (MEDEA RESEARCH S.r.l., priority 1981, dated 1983).
In brackets after ≈: the same amount, converted by molar mass.

Key:
Type in all cases: cell-based
[1] = system: Serratia marcescens; assay: Bactericide activity at different contact times; set-up: key to Bactericide action (growth / no growth): + = growth; - = no growth; conditions: 200 p.p.m.
Procedure: (§1) Different bacterial species isolated from patients are employed.
(§2) Compounds AB5 and AB6 are dissolved in ethanol (ethyl alcohol 95°, C. Erba) and all the subsequent dilutions performed in distilled water. The chlorhexidine is diluted from the commercial product already dissolved in distilled water.
(§3) It is assessed through Dinatech apparatus with "Inoculum 96" head.
(§4) Chemical compounds at established concentra tions are placed in amount of 1 ml in the con tainers, the bacterial inoculum is then added in amount of 0.1 ml (24 hrs culture) and at pre-established times (3,5,10,30,60 and 120 mi nutes), through the head, the mixture compound/ disinfectant agent is transferred in solid medium (agar-heart-brain medium). After incubation at 35°C for 24 hours, the reading is carried out. The tests are repeated in presence of human serum at the concentration of 10%.

[2] = system: Indole-positive Proteus; assay: Bactericide activity at different contact times; set-up: key to Bactericide action (growth / no growth): + = growth; - = no growth; conditions: 200 p.p.m.
Procedure: as §1, §2, §3, §4

[3] = system: E. coli; assay: Bactericide activity at different contact times; set-up: key to Bactericide action (growth / no growth): + = growth; - = no growth; conditions: 200 p.p.m.
Procedure: as §1, §2, §3, §4

[4] = system: Different bacterial species isolated from patients; assay: Bactericide activity, minimum active concentration on the strains; conditions: Homo sapiens, 24 h
Procedure: as §1
Strains of E. coli, Pseudomonas aeruginosa, indole-positive and negative Proteus, Staphilococcus aureus, Enterobacter, Salmonella sp., Serratia marcescens, B. subtilis and Bacillaceae are investigated.
as §2, §3, §4
For chlorhexidine, the minimum active concentration is 200 p.p.m.

[5] = system: Staph. aureus; assay: Minimum inhibitory concentration (MIC), broth dilution; conditions: Staphylococcus aureus, 24 h; strain 2672
Procedure: as §1, §2
(§5) The broth dilution is employed to assess MIC values for all strains. Sterile microtiter plates with U bottom with 96 wells are employed. 0.1 Ml of liquid medium (tryptose Roche broth) are put in each well, the plates are kept at -20° and, before use, at room temperature.
(§6) The disinfectant agent is put in the wells of the row 2 at a concentration of 4000 mcg/ml (real 2000 mcg/ml) and then with a 100 µl micro- pipette dilutions are performed from row 2 to row 11.
(§7) The row 1 is the control of the medium and the row 12 is the control for the fertility of the medium itself.
(§8) After having performed the dilutions, 0.01 ml of a 24 hrs bacterial broth culture (previously diluted at 10^-4 for Gram-negative strains and 10-2 for Gram-positive ones) are placed in all wells, from the rows 2 to 12. After the inoculation, the plate is hermetical ly sealed with adhesive transparent band and an hole is done with a needle. The plates are kept at 35° for 24 hours and a macroscopic reading is carried out; in case of non uniform reading, taking place only for chlorhexidine, the cultures from the wells are plated on agar-heart-brain medium (Sclavo) through Dinatech apparatus (head "Inoculum 96") and the reading of the growth is carried out in the following 24 hours.

[6] = system: Pseudomonas aeruginosa; assay: as above; conditions: 24 h
Procedure: as §1, §2, §5, §6, §7, §8

[7] = system: Enterobacter; assay: as above; conditions: 24 h, strain 2643
Procedure: as §1, §2, §5, §6, §7, §8

[8] = system: Indole-positive Proteus; assay: as above; conditions: 24 h
Procedure: as §1, §2, §5, §6, §7, §8

[9] = system: E.coli; assay: as above; conditions: Escherichia coli, 24 h
Procedure: as §1, §2, §5, §6, §7, §8

[10] = system: Bacillaceae; assay: as above; conditions: 24 h; strain 1722
Procedure: as §1, §2, §5, §6, §7, §8

[11] = system: Salmonella sp.; assay: as above; conditions: 24 h, strain 2482
Procedure: as §1, §2, §5, §6, §7, §8

[12] = system: Pseudomonas aeruginosa; assay: Bactericide activity at different contact times; set-up: key to Bactericide action (growth / no growth) / Bactericide activity (growth / no growth), serum interference test: + = growth; - = no growth; conditions: 200 p.p.m.
Procedure: as §1, §2, §3, §4

[13] = system: Staph. aureus; assay: Bactericide activity at different contact times; set-up: key: + = growth; - = no growth; conditions: 200 p.p.m.
Procedure: as §1, §2, §3, §4

[14] = system: B. subtilis; assay: Bactericide activity at different contact times; set-up: key: + = growth; - = no growth; conditions: 200 p.p.m.
Procedure: as §1, §2, §3, §4

[15] = system: Salmonella sp.; assay: Bactericide activity at different contact times; set-up: key: + = growth; - = no growth; conditions: 200 p.p.m.
Procedure: as §1, §2, §3, §4

N=C(NCCCCCCNC(=N)NC(=N)Nc1ccc(Cl)cc1)NC(=N)Nc1ccc(Cl)cc1 [Chlorhexidine, N,N'-bis-(4-chlorophenyl)-3,12-diimino-2,4,11,13-tetraazatetradecandiimidamide, reference compound]
Bactericide action (growth / no growth) ([1]; contact time 3 min): + | Bactericide action (growth / no growth) ([1]; contact time 5 min): + | Bactericide action (growth / no growth) ([1]; contact time 10 min): + | Bactericide action (growth / no growth) ([1]; contact time 30 min): + | Bactericide action (growth / no growth) ([1]; contact time 60 min): - | Bactericide action (growth / no growth) ([1]; contact time 120 min): - | Bactericide action (growth / no growth) ([2]; contact time 3 min): + | Bactericide action (growth / no growth) ([2]; contact time 5 min): + | Bactericide action (growth / no growth) ([2]; contact time 10 min): + | Bactericide action (growth / no growth) ([2]; contact time 30 min): + | Bactericide action (growth / no growth) ([2]; contact time 60 min): + | Bactericide action (growth / no growth) ([2]; contact time 120 min): - | contact time for total bactericide activity [3]: 30 to 120 min | Bactericide action (growth / no growth) ([3]; contact time 3 min): + | Bactericide action (growth / no growth) ([3]; contact time 5 min): + | Bactericide action (growth / no growth) ([3]; contact time 10 min): + | Bactericide action (growth / no growth) ([3]; contact time 30 min): - | Bactericide action (growth / no growth) ([3]; contact time 60 min): - | Bactericide action (growth / no growth) ([3]; contact time 120 min): - | MBC [4]: 200 µg/mL (≈ 396 µM) | MIC [5]: < 0.98 µg/mL | MIC ([6]; strain 2458): 1000 µg/mL (≈ 1980 µM) | MIC ([6]; strain 2488): 2000 µg/mL (≈ 3960 µM) | MIC ([6]; strain 2508): > 2000 µg/mL | MIC ([6]; strain 2509): 2000 µg/mL (≈ 3960 µM) | MIC ([6]; strain 2670): > 2000 µg/mL | MIC [7]: 2000 µg/mL (≈ 3960 µM) | MIC ([8]; strain 2075): > 1000 µg/mL | MIC ([8]; strain 2083): 1000 µg/mL (≈ 1980 µM) | MIC ([8]; strain 2105): > 1000 µg/mL | MIC ([8]; strain 2410): 2000 µg/mL (≈ 3960 µM) | MIC ([8]; strain 2447): 2000 µg/mL (≈ 3960 µM) | MIC ([8]; strain 2674): > 2000 µg/mL | MIC ([9]; strain 2096): 1000 µg/mL (≈ 1980 µM) | MIC ([9]; strain 2117): 1000 µg/mL (≈ 1980 µM) | MIC ([9]; strain 2456): 500 µg/mL (≈ 989 µM) | MIC ([9]; strain 2568): 2000 µg/mL (≈ 3960 µM) | MIC [10]: < 0.98 µg/mL | MIC [11]: 500 µg/mL (≈ 989 µM) | Bactericide action (growth / no growth) ([12]; contact time 3 min): + | Bactericide action (growth / no growth) ([12]; contact time 5 min): + | Bactericide action (growth / no growth) ([12]; contact time 10 min): + | Bactericide action (growth / no growth) ([12]; contact time 30 min): + | Bactericide action (growth / no growth) ([12]; contact time 60 min): - | Bactericide action (growth / no growth) ([12]; contact time 120 min): - | Bactericide action (growth / no growth) ([13]; contact time 3 min): + | Bactericide action (growth / no growth) ([13]; contact time 5 min): + | Bactericide action (growth / no growth) ([13]; contact time 10 min): + | Bactericide action (growth / no growth) ([13]; contact time 30 min): - | Bactericide action (growth / no growth) ([13]; contact time 60 min): - | Bactericide action (growth / no growth) ([13]; contact time 120 min): - | Bactericide action (growth / no growth) ([14]; contact time 3 min): + | Bactericide action (growth / no growth) ([14]; contact time 5 min): + | Bactericide action (growth / no growth) ([14]; contact time 10 min): + | Bactericide action (growth / no growth) ([14]; contact time 30 min): + | Bactericide action (growth / no growth) ([14]; contact time 60 min): - | Bactericide action (growth / no growth) ([14]; contact time 120 min): - | Bactericide action (growth / no growth) ([15]; contact time 3 min): + | Bactericide action (growth / no growth) ([15]; contact time 5 min): + | Bactericide action (growth / no growth) ([15]; contact time 10 min): + | Bactericide action (growth / no growth) ([15]; contact time 30 min): + | Bactericide action (growth / no growth) ([15]; contact time 60 min): - | Bactericide action (growth / no growth) ([15]; contact time 120 min): -
